# From publication PMC6286348, “Inhibitor binding mode and allosteric regulation of Na^+-glucose symporters” (Nature Communications, 2018)
# What was measured:
# [1] = target: T1, hSGLT1 wild-type (Homo sapiens, UniProt P13866); test: SGLT current measurement (two electrode voltage clamp) in oocytes, hSGLT1 wild-type; format: cell-based; conditions: apparent affinity from αMDG current vs external Na^+, 10 mM αMDG, 22 °C
# T1 construct: expressed in transfected cells; host or cells: Xenopus laevis oocytes injected with cRNA
# T1 sequence (P13866 1-664): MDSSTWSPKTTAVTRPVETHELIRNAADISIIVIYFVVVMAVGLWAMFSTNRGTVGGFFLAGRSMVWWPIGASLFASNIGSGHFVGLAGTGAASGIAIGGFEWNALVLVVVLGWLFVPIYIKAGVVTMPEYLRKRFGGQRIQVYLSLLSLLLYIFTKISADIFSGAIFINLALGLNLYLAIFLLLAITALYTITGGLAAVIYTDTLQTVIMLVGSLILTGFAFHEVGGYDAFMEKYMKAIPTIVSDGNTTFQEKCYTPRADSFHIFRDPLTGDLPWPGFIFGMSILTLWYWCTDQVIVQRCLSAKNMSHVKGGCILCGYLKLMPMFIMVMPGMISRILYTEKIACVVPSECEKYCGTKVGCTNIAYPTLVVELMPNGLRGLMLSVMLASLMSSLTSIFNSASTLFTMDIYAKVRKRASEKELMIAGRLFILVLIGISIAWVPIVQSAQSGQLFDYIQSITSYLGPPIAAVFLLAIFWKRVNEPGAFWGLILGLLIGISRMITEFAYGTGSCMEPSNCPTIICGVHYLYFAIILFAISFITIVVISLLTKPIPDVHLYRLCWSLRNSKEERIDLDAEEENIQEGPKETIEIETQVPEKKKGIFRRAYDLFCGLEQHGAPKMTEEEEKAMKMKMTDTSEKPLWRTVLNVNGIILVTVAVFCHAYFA
# Experimental: (§1) Xenopus laevis (Nasco) oocytes (V–VI) were prepared as previously described[20] and injected with 50 nl of cRNA (1 μg/μl). […] Briefly, oocytes were incubated for 30 min in the presence of 50 μM αMDG (5 μM [^14C]αMDG) in a buffer containing (in mM) 100 NaCl, 2 KCl, 1 MgCl2, 1 CaCl2, and 10 N-(2-hydroxyethyl)piperazine-N′-(2-ethanesulfonic acid) (HEPES)/Tris (pH 7.5). After incubation, oocytes were rinsed thoroughly with ice-cold buffer containing (mM) 100 choline Cl^–, 2 KCl, 1 MgCl2, 1 CaCl2, and 10 HEPES/Tris (pH 7.5), individually lysed with 5% sodium dodecyl sulfate, and assayed for radioactivity.
# Injected oocytes were incubated at 18 °C, and after 3–4 days, two electrode voltage clamp experiments were performed as previously described. Briefly, SGLT inward glucose currents were measured as a function of the external Na^+ (0–100 mM NaCl), sugar (0–100 mM αMDG), and inhibitors (0.001–100 μM). Steady-state and hSGLT1 capacitive currents were recorded using voltage steps from a holding voltage, Vh of −60 mV, to voltages in the range of −180 to +50 mV in 20 mV increments. The apparent affinity of αMDG, K0.5, was estimated from plots of the inward current as a function of the external αMDG concentration. […] The Na^+-to-αMDG stoichiometry was determined from the reversal potential measurements using the Gibbs free energy as previously described. […]
# [2] = target: T2, hSGLT2 wild-type (Homo sapiens, UniProt P31639); test: SGLT current measurement in oocytes, hSGLT2 wild-type (MAP17 co-injected); format: cell-based; design: expressed in transfected cells; host or cells: Xenopus laevis oocytes injected with hSGLT2 cRNA and MAP17 cRNA; conditions: 22 °C
# T2 sequence (P31639 1-672): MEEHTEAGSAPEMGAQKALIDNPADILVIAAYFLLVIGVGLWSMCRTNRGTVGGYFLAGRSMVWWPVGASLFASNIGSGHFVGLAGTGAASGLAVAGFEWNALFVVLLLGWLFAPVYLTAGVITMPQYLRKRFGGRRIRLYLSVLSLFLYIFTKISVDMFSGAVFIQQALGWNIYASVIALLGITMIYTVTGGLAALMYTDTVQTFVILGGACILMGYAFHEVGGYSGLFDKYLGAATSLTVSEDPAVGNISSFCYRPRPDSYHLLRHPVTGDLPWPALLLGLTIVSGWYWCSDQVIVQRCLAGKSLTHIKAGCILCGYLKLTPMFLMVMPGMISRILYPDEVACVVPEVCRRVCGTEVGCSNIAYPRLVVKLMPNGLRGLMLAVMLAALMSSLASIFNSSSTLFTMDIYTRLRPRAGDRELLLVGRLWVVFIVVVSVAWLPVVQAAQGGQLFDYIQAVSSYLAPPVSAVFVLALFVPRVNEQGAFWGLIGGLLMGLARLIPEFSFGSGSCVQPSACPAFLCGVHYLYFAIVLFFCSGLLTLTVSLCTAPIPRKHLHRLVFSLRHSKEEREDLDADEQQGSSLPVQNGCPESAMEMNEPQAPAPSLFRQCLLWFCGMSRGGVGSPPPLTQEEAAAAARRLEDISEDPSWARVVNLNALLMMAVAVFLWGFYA
# T2 sequence (Q13113 1-114 partner): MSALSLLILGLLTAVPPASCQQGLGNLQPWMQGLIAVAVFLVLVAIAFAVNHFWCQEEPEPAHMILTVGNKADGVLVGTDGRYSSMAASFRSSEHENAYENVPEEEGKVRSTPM
# Experimental: as §1
# Injected oocytes were incubated at 18 °C, and after 3–4 days, two electrode voltage clamp experiments were performed as previously described. Briefly, SGLT inward glucose currents were measured as a function of the external Na^+ (0–100 mM NaCl), sugar (0–100 mM αMDG), and inhibitors (0.001–100 μM). Steady-state and hSGLT1 capacitive currents were recorded using voltage steps from a holding voltage, Vh of −60 mV, to voltages in the range of −180 to +50 mV in 20 mV increments. The apparent affinity of αMDG, K0.5, was estimated from plots of the inward current as a function of the external αMDG concentration. Under our experimental conditions, K0.5 is a close approximation of the αMDG binding constant to the Na^+-bound outward conformation of SGLT. The apparent affinity for Na^+, K0.5, was estimated from plots of the αMDG inward current as a function of external Na^+ concentration. For hSGLT1 the interpretation of K0.5 is more complex owing to the presence of two Na^+ binding sites. In this case, the K0.5 is a lumped coefficient for Na^+ binding to the two sites in the outward-facing hSGLT1 conformation. […] The Na^+-to-αMDG stoichiometry was determined from the reversal potential measurements using the Gibbs free energy as previously described. The stoichiometry determinations were reinforced by estimates of αMDG and Na^+ Hill coefficients, and in some cases, by measurement of ^22Na and [^14C]αMDG uptakes under voltage clamp, [21].
# [3] = tested on: hSGLT1 F101C; design: method as in PMID 22159082; conditions: oocytes, 22 °C; cited from earlier work
compound,measurement,setting,value
[Na+] [Na^+],K0.5 Na^+,[1],36 ± 1 mM
same,K0.5 Na^+,[2],22 ± 1 mM
same,K0.5 Na^+,[3],9 ± 1[20] mM
